Measured values taken from US6479293B1, “Temperature indicating material and temperature monitoring member” (Toshiba Tec Kabushiki Kaisha, priority 1999, dated 2002).

Method: The solubility of propyl gallate (PG) in molten cyclododecanol (CD) was studied. […] Here, temperature indicating members were prepared by adding cylododecanol (CD) in an amount permitting dissolution of 8 times the amount (Example 3), 4 times the amount (Example 4), twice the amount (Example 5), 1.2 times the amount (Example 6) and 0.8 time the amount (Example 7) of 1 part by weight of propyl gallate (PG), respectively. […] As comparative examples, a temperature indicating material free of cyclododecanol (CD) and that containing 5 parts by weight of 1-docosanol, which is a linear saturated alcohol, instead of cyclododecanol (CD) were prepared in Comparative Example 4 and Comparative Example 5, respectively.

Row | SMILES | Solubility | Solubility of propyl gallate (PG) in molten cyclododecanol (CD)
1 | O=C(c1ccc(O)cc1)c1ccc(O)c(O)c1O [Example 2344, 2,3,4,4′-tetrahydroxybenzophenone] | 2 | 
2 | CC(C)(c1ccc(O)cc1)c1ccc(O)cc1 [HBA, bisphenol A] | 3 | 
3 | CCCCCCCCCCCCOC(=O)c1cc(O)c(O)c(O)c1 [LG, lauryl gallate] | 10 | 
4 | CCCOC(=O)c1cc(O)c(O)c(O)c1 [PG, propyl gallate] | 8 | at least 0.8 g
